Experimental data from US8227510B2, “Combine use of pterostilbene and quercetin for the production of cancer treatment medicaments” (Universitat de Valencia, priority 2004, dated 2012).
Marks after values point to notes of the source that are not given here.

How the values were obtained:
B16M-F10 cells [1] = assay: Inhibition in vitro of the growth of B16M-F10 cells; format: cell-based
Experimental: B16M-F10 cells were cultured in Dulbecco's modified Eagle's medium (DMEM; Gibco Labs., Grand Island, N.Y., USA), pH 7.4, supplemented with 10% fetal serum (Gibco), HEPES 10 mM, NaHCO3 40 mM, 100 U/ml of penicillin and 100 μg/ml of streptomycin (20).
The B16M-F10 melanoma, highly aggressive, is a model that is widely used for investigating metastatic spread and tissue invasion (21), and for this reason was chosen for our studies. In the first group of experiments, we studied the effect in vitro of t-PTER+QUER on the growth of B16M-F10 cells. To reproduce the conditions in vivo after i.v. administration, we incubated B16M-F10 cells in the presence of t-PTER (40 μM) and/or QUER (20 μM) for a limited period (60 minutes) (this represents a value that approximates to the average of the concentrations of PTER and QUER measured in the plasma during the first hour after i.v. administration of 20 mg/kg of each polyphenol (FIG. 2). For comparison, we also used t-RESV (12 μM; selection of this concentration was based on a similar criterion, see the data cited in ref. 14). The polyphenols were added to the incubation medium every 24 hours and, as mentioned, they were only present for 60 minutes.
Also for comparison, we incubated B16M-F10 cells in the presence of t-PTER+QUER at concentrations representing an approximate average value of the total level of each polyphenol measured in the plasma in the first hour after oral administration (11 μM of PTER and 1 μM of QUER) (see Table 1). Both polyphenols, as free forms, were constantly present in the incubation medium.
FIG. 2. Inhibition in vitro of the growth of B16M-F10 cells by brief exposure to resveratrol (RESV), pterostilbene (PTER) and/or quercetin (QUER). All the points are mean values±SD corresponding to 5-6 independent experiments. *P<0.05, **P<0.01 compared with the control values.

Bcl-2 = assay: Intracellular levels of Bcl-2 in B16M-F10/Tet-Bcl-2 cells (enzyme immunoassay); format: cell-based, mouse; conditions: same exposure, none 160 ± 25
From the text: The Tet-off gene expression system (Clontech, Palo Alto, Calif., USA) was used for inserting the mouse bcl-2 gene and transfecting the B16M-F10 cells, as described previously (26) and following the manufacturer's instructions. The protein Bcl-2 was quantified in the soluble cytosolic fraction by enzyme immunoassay (27) using a test based on a monoclonal antibody from Sigma (San Luis, Mo., USA) (a Bcl-2 unit was defined as the amount of Bcl-2 protein in 1000 non-transfected B16M-F10 cells).
This methodology makes it possible for the effect of PTER and QUER to be studied in vivo. For this purpose, mice were inoculated with B16M-F10 control cells or B16M-F10/Tet-Bcl-2 which overexpressed Bcl-2. […] The number of adhering cells shown in the table was calculated at 60 minutes postinjection (no significant differences were found when the measurements were effected at 30, 120, 180, 240 or 360 minutes postinjection, data not shown). The number of intact cells was calculated at 6 hours postinjection. […] The growth of metastases in the liver was evaluated as stated in the corresponding section of the description, and in this case the mice were treated daily (×10 days) with t-PTER and/or QUER (20 mg/kg of body weight) administered i.v. (the data are mean values±SD corresponding to 25 mice per group). […]

B16M-F10 cells [2] = assay: In vivo microscopy: B16M-F10 cells adhering to the HSE and intact cells; set-up: species or system mice; conditions: for Intact cells: B16M-F10, 6 hours postinjection, none 83 ± 14; for Number of cells adhering to the HSE: B16M-F10 precultured with polyphenols, 60 minutes postinjection, none 45 ± 7
Experimental: (§1) Hepatic metastases were induced by i.v. inoculations (portal vein), in anesthetized mice (Nembutal, 50 mg/kg i.p.), of 4×10^5 viable B16M-F10 cells suspended in 0.2 ml of DMEM. The mice were sacrificed by cervical dislocation 10 days after inoculation. The livers were fixed by immersion for 24 hours at 22° C. in 10% formaldehyde in PBS (pH 7.4), and were subsequently embedded in paraffin. The density of metastases (average number of foci/100 mm^3 of liver detected in fifteen sections of 10×10 mm^2 per liver) and the volume of metastases (average percentage of liver volume occupied by metastases) were determined as described previously (22).
(§2) This methodology makes it possible for the effect of PTER and QUER to be studied in vivo. For this purpose, mice were inoculated with B16M-F10 control cells or B16M-F10/Tet-Bcl-2 which overexpressed Bcl-2. Both subgroups of cells were cultivated beforehand in the absence or in the presence of t-PTER and QUER. B16M-F10 cells were cultivated for 72 hours. t-RESV (12 μM), t-PTER (40 μM), and QUER (20 μM) were added at 6, 30 and 54 hours of culture time, and were present in each case for just 60 minutes. Then they were removed from the culture flasks by washing (3 times with PBS) and the medium was renewed. The levels of Bcl-2 in the B16M-F10 control cells and cells treated with Tet-Bcl-2 were 24±5 and 105±14 units/mg of protein, respectively (n=5 in each case, P<0.01). The number of adhering cells shown in the table was calculated at 60 minutes postinjection (no significant differences were found when the measurements were effected at 30, 120, 180, 240 or 360 minutes postinjection, data not shown). The number of intact cells was calculated at 6 hours postinjection. The experimental microscopy data in vivo are mean values±SD corresponding to 4-5 different experiments. The growth of metastases in the liver was evaluated as stated in the corresponding section of the description, and in this case the mice were treated daily (×10 days) with t-PTER and/or QUER (20 mg/kg of body weight) administered i.v. (the data are mean values±SD corresponding to 25 mice per group). A similar method and equal number of mice per group were used for evaluating the survival of the carrier animals. The test of significance relates, in all the groups, to comparison between cases with PTER and/or QUER and cases without additions (*P<0.05 and **P<0.01), and to comparison between the B16M-F10/Tet-Bcl-2 cells with the B16M-F10 control cells (^+P<0.05, ^++P<0.01). […] This is the first time that the combined administration in vivo of natural polyphenols has induced inhibition of metastatic growth of a highly malignant tumor and an increase in the survival of the carrier.

B16M-F10/Tet-Bcl-2 cells = assay: In vivo microscopy: B16M-F10/Tet-Bcl-2 cells adhering to the HSE and intact cells; set-up: species or system mice; conditions: for Intact cells: B16M-F10/Tet-Bcl-2, 6 hours postinjection, none 85 ± 13; for Number of cells adhering to the HSE: B16M-F10/Tet-Bcl-2 precultured with polyphenols, 60 minutes postinjection, none 42 ± 6
Experimental: as §1, §2

[3] = t-PTER 40 μM, QUER 20 μM, t-RESV 12 μM, added every 24 hours, present for 60 minutes

SMILES	inhibition of the growth of B16M-F10 (B16M-F10 cells [1]; [3])	Intracellular levels of Bcl-2 before inoculation (Bcl-2)	Intact cells (B16M-F10 cells [2])	Number of cells adhering to the HSE (B16M-F10 cells [2])	Intact cells (B16M-F10/Tet-Bcl-2 cells)	Number of cells adhering to the HSE (B16M-F10/Tet-Bcl-2 cells)	effect on growth of B16M-F10 cells at concentrations found after oral administration (B16M-F10 cells [1]; t-PTER 11 μM and/or QUER 1 μM, constantly present in the medium)	inhibition at 20 µM (B16M-F10 cells [1]; [3]) [%]	effect of t-RESV on the percentage inhibition of growth promoted by t-PTER+QUER (B16M-F10 cells [1]; t-RESV 12 μM added to t-PTER 40 μM + QUER 20 μM)
COc1cc(/C=C/c2ccc(O)cc2)cc(OC)c1 [PTER, pterostilbene]	40%	151 ± 18^++ units/mg protein	85 ± 17 percentage of cells adhering t	20 ± 5** average number per lobe	91 ± 20 percentage of cells adhering t	21 ± 4** average number per lobe			
O=c1c(O)c(-c2ccc(O)c(O)c2)oc2cc(O)cc(O)c12 [QUER, quercetin]		125 ± 13*^++ units/mg protein	52 ± 8** percentage of cells adhering t	46 ± 9 average number per lobe	87 ± 13^++ percentage of cells adhering t	40 ± 7 average number per lobe	did not have a significant effect	19	
Oc1ccc(C=Cc2cc(O)cc(O)c2)cc1 [RESV, resveratrol, reference compound]	did not have a significant effect								did not significantly affect
